Source: ChEMBL document CHEMBL6096738, “Optimization of Single Relaxin B-Chain Peptide Leads to the Identification of R2R01, a Potent, Long-Acting RXFP1 Agonist for Cardiovascular and Renal Diseases” (J Med Chem, 2025)
Starred links: 1 amine or outer side, 2 acyl side, 3 side chain; linkers in the order of their positions; H or OH if unused. Non-standard residues stand in square brackets, D forms with d. Residues, ends and D or L forms follow the SMILES beside them. Groups on a side chain read outwards from the residue. *: point of attachment. X2 = CCCCCCCCCCCCCCCC(=O)N[C@@H](CCC(=O)N[C@@H](CCC(=O)N[C@@H](CCC(=O)NCCCOCCOCCOCCCNC(=O)CCC(=O)NCCCOCCOCCOCCCNC(=O)CCC(=O)NCCCOCCOCCOCCCN*)C(=O)O)C(=O)O)C(=O)O; γGlu = O=C(O)[C@H](CCC(=O)[*:2])N[*:1]; Palmitoyl = CCCCCCCCCCCCCCCC(=O)*; Suc = O=C(CCC(=O)[*:2])[*:1]; αMeK = C[C@](N)(CCCCN)C(=O)O; Nle = CCCC[C@H](N)C(=O)O; AEEA = NCCOCCOCC(=O)O; Aib = CC(C)(N)C(=O)O

Assays:
[1] = Induction of mast cell degranulation in human LAD2 cells assessed as beta-hexosaminidase release by measuring 4-methylumbelliferyl N-acetyl-beta-D-glucosaminide hydrolysis incubated for 30 mins by plate reader analysis; assay type: toxicity, cell-based; settings: probe 4-methylumbelliferyl N-acetyl-beta-D-glucosaminide
[2] = Induction of mast cell degranulation in human LAD2 cells assessed as beta-hexosaminidase release by measuring maximal efficacy of 4-methylumbelliferyl N-acetyl-beta-D-glucosaminide hydrolysis at 100 uM incubated for 30 mins by plate reader analysis relative to control; assay type: toxicity, cell-based; settings: probe 4-methylumbelliferyl N-acetyl-beta-D-glucosaminide
[3] = target: T1, Relaxin receptor 1 (Homo sapiens) (UniProt Q9HBX9); assay: Agonist activity at human RXFP1 expressed in human OVCAR-5 cells assessed as intracellular cAMP accumulation by measuring maximal efficacy incubated for 30 mins by HTRF assay relative to control; assay type: functional, cell-based; settings: filed as agonist
T1 sequence (whole entry): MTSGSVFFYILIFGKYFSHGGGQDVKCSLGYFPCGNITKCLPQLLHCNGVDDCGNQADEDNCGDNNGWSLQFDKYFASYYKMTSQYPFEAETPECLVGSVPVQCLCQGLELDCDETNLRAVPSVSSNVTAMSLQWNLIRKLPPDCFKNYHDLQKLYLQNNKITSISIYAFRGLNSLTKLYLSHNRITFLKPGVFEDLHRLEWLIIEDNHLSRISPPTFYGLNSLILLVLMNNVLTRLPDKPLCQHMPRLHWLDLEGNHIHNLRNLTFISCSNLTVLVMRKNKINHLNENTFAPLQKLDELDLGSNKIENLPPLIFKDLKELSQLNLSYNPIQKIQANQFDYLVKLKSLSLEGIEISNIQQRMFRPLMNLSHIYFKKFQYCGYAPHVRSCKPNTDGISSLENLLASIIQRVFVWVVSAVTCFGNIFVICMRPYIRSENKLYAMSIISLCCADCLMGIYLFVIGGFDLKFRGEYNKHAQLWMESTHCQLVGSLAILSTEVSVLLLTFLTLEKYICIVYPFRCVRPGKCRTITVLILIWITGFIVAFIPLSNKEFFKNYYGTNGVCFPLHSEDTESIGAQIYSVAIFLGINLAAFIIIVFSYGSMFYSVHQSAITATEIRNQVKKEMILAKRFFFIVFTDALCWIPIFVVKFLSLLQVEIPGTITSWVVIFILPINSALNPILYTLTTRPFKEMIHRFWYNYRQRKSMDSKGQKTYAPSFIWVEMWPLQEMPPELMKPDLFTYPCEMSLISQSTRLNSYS

[4] = target: T1, Relaxin receptor 1 (Homo sapiens); assay: Agonist activity at human RXFP1 expressed in 2%HSA treated human OVCAR-5 cells assessed as intracellular cAMP accumulation by measuring maximal efficacy incubated for 30 mins with 2% HSA pretreated compound by HTRF assay relative to control; assay type: functional, cell-based; settings: filed as agonist
Relaxin receptor 1 [5] = target: T2, Relaxin receptor 1 (Homo sapiens, UniProt Q9HBX9); assay: Agonist activity at human RXFP1 expressed in 2%HSA treated human OVCAR-5 cells assessed as intracellular cAMP accumulation incubated for 30 mins with 2% HSA pretreated compound by HTRF assay; assay type: functional, cell-based
T2 sequence (Q9HBX9 whole entry): T1 sequence (whole entry)

Relaxin receptor 1 [6] = target: T2, Relaxin receptor 1; assay: Agonist activity at human RXFP1 expressed in human OVCAR-5 cells assessed as intracellular cAMP accumulation incubated for 30 mins by HTRF assay; assay type: functional, cell-based
[7] = Induction of mast cell degranulation in human LAD2 cells assessed as beta-hexosaminidase release by measuring maximal efficacy of 4-methylumbelliferyl N-acetyl-beta-D-glucosaminide hydrolysis at 33 uM incubated for 30 mins by plate reader analysis relative to control; assay type: toxicity, cell-based; settings: probe 4-methylumbelliferyl N-acetyl-beta-D-glucosaminide
[8] = Half-life in male Sprague-Dawley rat at 1 mg/kg, iv measured after 198 hrs by LC-HRMS analysis; assay type: ADME, organism-based; settings: in vivo

SMILES | Emax [3] | Emax [4] | EC50 (Relaxin receptor 1 [5]) | EC50 (Relaxin receptor 1 [6]) | half-life [8] | EC50 at 30 min [1] | Emax at 0.5 h, 100 µM [2] | Emax at 0.5 h, 33 µM [7]
CCCCCCCCCCCCCCCC(=O)N[C@@H](CCC(=O)N[C@@H](CCC(=O)N[C@@H](CCC(=O)NCCCOCCOCCOCCCNC(=O)CCC(=O)NCCCOCCOCCOCCCNC(=O)CCC(=O)NCCCOCCOCCOCCCNC(=O)CCC(=O)NCCCC[C@H](NC(=O)CNC(=O)[C@H](CCC(=O)O)NC(=O)C(C)(C)NC(=O)C(C)(C)NC(=O)[C@@H](NC(=O)[C@H](CCCCNC(C)=O)NC(=O)[C@H](C)NC(=O)[C@H](CCCNC(=N)N)NC(=O)[C@@H](NC(=O)[C@H](CCCCN)NC(=O)[C@H](CCC(=O)O)NC(=O)[C@H](CCCNC(=N)N)NC(=O)CNC(=O)[C@H](CCC(=O)O)NC(=O)[C@H](CC(C)C)NC(C)=O)C(C)C)[C@@H](C)CC)C(=O)N[C@@H](CO)C(=O)N[C@H](C(=O)N[C@@H](Cc1c[nH]c2ccccc12)C(=O)N[C@@H](CO)C(=O)NC(C)(C)C(=O)N[C@@H](CCCNC(=N)N)C(=O)N[C@@H](CCCCN)C(=O)N[C@@H](CCCCNC(C)=O)C(N)=O)[C@@H](C)O)C(=O)O)C(=O)O)C(=O)O (Ac-LEGREKVRAK(Ac)I[Aib][Aib]EGK([Suc-X2])STWS[Aib]RKK(Ac)-NH2) | 98% | 90% | 105 nM | 1.35 nM |  | 5900 nM |  | 67.5%
CCCCCCCCCCCCCCCC(=O)N[C@@H](CCC(=O)N[C@@H](CCC(=O)N[C@@H](CCC(=O)NCCCOCCOCCOCCCNC(=O)CCC(=O)NCCCOCCOCCOCCCNC(=O)CCC(=O)NCCCOCCOCCOCCCNC(=O)CCC(=O)NCCCC[C@H](NC(=O)[C@H](CCC(N)=O)NC(=O)CNC(=O)[C@H](CCC(=O)O)NC(=O)C(C)(C)NC(=O)C(C)(C)NC(=O)[C@@H](NC(=O)[C@H](CCCCNC(C)=O)NC(=O)[C@H](C)NC(=O)[C@H](CCCNC(=N)N)NC(=O)[C@@H](NC(=O)[C@H](CCCCN)NC(=O)[C@H](CCC(=O)O)NC(=O)[C@H](CCCNC(=N)N)NC(=O)CNC(=O)[C@H](CCC(=O)O)NC(=O)[C@H](CC(C)C)NC(C)=O)C(C)C)[C@@H](C)CC)C(=O)N[C@H](C(=O)N[C@@H](Cc1c[nH]c2ccccc12)C(=O)N[C@@H](CO)C(=O)NC(C)(C)C(=O)N[C@@H](CCCNC(=N)N)C(=O)N[C@@H](CCCCN)C(=O)N[C@@H](CCCCNC(C)=O)C(N)=O)[C@@H](C)O)C(=O)O)C(=O)O)C(=O)O (Ac-LEGREKVRAK(Ac)I[Aib][Aib]EGQK([Suc-X2])TWS[Aib]RKK(Ac)-NH2) | 90% |  | > 2000 nM | 25 nM |  | 12800 nM | 32% | 
CCCCCCCCCCCCCCCC(=O)N[C@@H](CCC(=O)N[C@@H](CCC(=O)N[C@@H](CCC(=O)NCCOCCOCC(=O)NCCOCCOCC(=O)NCCOCCOCC(=O)NCCOCCOCC(=O)NCCCC[C@H](NC(=O)[C@H](CCCCNC(C)=O)NC(=O)[C@H](C)NC(=O)[C@H](CCCNC(=N)N)NC(=O)[C@](C)(CCCCN)NC(=O)[C@H](CO)NC(=O)[C@H](Cc1ccccc1)NC(=O)[C@@H](NC(=O)[C@H](CO)NC(=O)[C@H](CCCC)NC(=O)CNC(=O)[C@H](CCC(=O)O)NC(=O)C(C)(C)NC(=O)C(C)(C)NC(=O)[C@@H](NC(=O)[C@H](CCCCNC(C)=O)NC(=O)[C@H](C)NC(=O)[C@H](CCCNC(=N)N)NC(=O)[C@@H](NC(=O)[C@H](CCCCN)NC(=O)[C@H](CCC(=O)O)NC(=O)[C@H](CCCNC(=N)N)NC(=O)CNC(=O)[C@H](CCC(=O)O)NC(=O)[C@H](CC(C)C)NC(C)=O)C(C)C)[C@@H](C)CC)[C@@H](C)O)C(N)=O)C(=O)O)C(=O)O)C(=O)O (Ac-LEGREKVRAK(Ac)I[Aib][Aib]EG[Nle]STFS[αMeK]RAK(Ac)K([AEEA-AEEA-AEEA-AEEA-γGlu-γGlu-γGlu-Palmitoyl])-NH2) | 89% | 96% | 20.1 nM | 0.27 nM | 7.3 h | 3000 nM |  | 58%
CCCCCCCCCCCCCCCC(=O)N[C@@H](CCC(=O)N[C@@H](CCC(=O)N[C@@H](CCC(=O)NCCCOCCOCCOCCCNC(=O)CCC(=O)NCCCOCCOCCOCCCNC(=O)CCC(=O)NCCCOCCOCCOCCCNC(=O)CCC(=O)NCCCC[C@H](NC(=O)[C@H](C)NC(=O)[C@H](CCCNC(=N)N)NC(=O)[C@@H](NC(=O)[C@H](CCCCN)NC(=O)[C@H](CCC(=O)O)NC(=O)[C@H](CCCNC(=N)N)NC(=O)CNC(=O)[C@H](CCC(=O)O)NC(=O)[C@H](CC(C)C)NC(C)=O)C(C)C)C(=O)N[C@H](C(=O)NC(C)(C)C(=O)NC(C)(C)C(=O)N[C@@H](CCC(=O)O)C(=O)NCC(=O)N[C@@H](CCC(N)=O)C(=O)N[C@@H](CO)C(=O)N[C@H](C(=O)N[C@@H](Cc1c[nH]c2ccccc12)C(=O)N[C@@H](CO)C(=O)NC(C)(C)C(=O)N[C@@H](CCCNC(=N)N)C(=O)N[C@@H](CCCCN)C(=O)N[C@@H](CCCCNC(C)=O)C(N)=O)[C@@H](C)O)[C@@H](C)CC)C(=O)O)C(=O)O)C(=O)O (Ac-LEGREKVRAK([Suc-X2])I[Aib][Aib]EGQSTWS[Aib]RKK(Ac)-NH2) | 95% | 90% | 68.6 nM | 0.61 nM |  | 12500 nM | 40% | 

The next lines start with results.

Emax [3] | Emax [4] | EC50 (Relaxin receptor 1 [5]) | EC50 (Relaxin receptor 1 [6]) | half-life [8] | SMILES | EC50 at 30 min [1] | Emax at 0.5 h, 100 µM [2] | Emax at 0.5 h, 33 µM [7]
94% | 92% | 90 nM | 0.38 nM |  | CCCCCCCCCCCCCCCC(=O)N[C@H](CCC(=O)N[C@H](CCC(=O)N[C@H](CCC(=O)NCCCOCCOCCOCCCNC(=O)CCC(=O)NCCCOCCOCCOCCCNC(=O)CCC(=O)NCCCOCCOCCOCCCNC(=O)CCC(=O)NCCCC[C@H](NC(=O)[C@H](CO)NC(=O)[C@H](Cc1c[nH]c2ccccc12)NC(=O)[C@@H](NC(=O)[C@H](CO)NC(=O)[C@H](CCC(N)=O)NC(=O)CNC(=O)[C@H](CCC(=O)O)NC(=O)C(C)(C)NC(=O)C(C)(C)NC(=O)[C@@H](NC(=O)[C@H](CCCCNC(C)=O)NC(=O)[C@H](C)NC(=O)[C@H](CCCNC(=N)N)NC(=O)[C@@H](NC(=O)[C@H](CCCCN)NC(=O)[C@H](CCC(=O)O)NC(=O)[C@H](CCCNC(=N)N)NC(=O)CNC(=O)[C@H](CCC(=O)O)NC(=O)[C@H](CC(C)C)NC(C)=O)C(C)C)[C@@H](C)CC)[C@H](C)O)C(=O)N[C@@H](CCCNC(=N)N)C(=O)N[C@@H](CCCCN)C(=O)N[C@@H](CCCCNC(C)=O)C(N)=O)C(=O)O)C(=O)O)C(=O)O | 13400 nM | 24% | 
87% | 90% | 80 nM | 0.21 nM |  | CCCCCCCCCCCCCCCC(=O)N[C@@H](CCC(=O)N[C@@H](CCC(=O)N[C@@H](CCC(=O)NCCCOCCOCCOCCCNC(=O)CCC(=O)NCCCOCCOCCOCCCNC(=O)CCC(=O)NCCCOCCOCCOCCCNC(=O)CCC(=O)NCCCC[C@H](NC(=O)[C@@H](NC(=O)[C@H](CCCCNC(C)=O)NC(=O)[C@H](C)NC(=O)[C@H](CCCNC(=N)N)NC(=O)[C@@H](NC(=O)[C@H](CCCCN)NC(=O)[C@H](CCC(=O)O)NC(=O)[C@H](CCCNC(=N)N)NC(=O)CNC(=O)[C@H](CCC(=O)O)NC(=O)[C@H](CC(C)C)NC(C)=O)C(C)C)[C@@H](C)CC)C(=O)NC(C)(C)C(=O)N[C@@H](CCC(=O)O)C(=O)NCC(=O)N[C@@H](CCC(N)=O)C(=O)N[C@@H](CO)C(=O)N[C@H](C(=O)N[C@@H](Cc1c[nH]c2ccccc12)C(=O)N[C@@H](CO)C(=O)NC(C)(C)C(=O)N[C@@H](CCCNC(=N)N)C(=O)N[C@@H](CCCCN)C(=O)N[C@@H](CCCCNC(C)=O)C(N)=O)[C@@H](C)O)C(=O)O)C(=O)O)C(=O)O (Ac-LEGREKVRAK(Ac)IK([Suc-X2])[Aib]EGQSTWS[Aib]RKK(Ac)-NH2) | 13600 nM | 11% | 
